Assay results taken from article PMC6407578, “Synthesis and biological evaluation of ursolic acid derivatives bearing triazole moieties as potential anti-Toxoplasma gondii agents” (Journal of Enzyme Inhibition and Medicinal Chemistry, 2019).

Experiments:
HeLa cells = assay: Cytotoxicity on HeLa host cells (MTT); format: cell-based; details: Homo sapiens, HeLa, median toxicity dose, cytotoxicity against host cells, 24 h
Description: (§1) The cytotoxicity of compounds was determined using the previously published thiazolyl blue-based colorimetric method. For this, HeLa cells were used as host cells and their ability to resist invasion by T. gondii RH strain tachyzoites in vitro was checked. The cells were plated in 96-well plates at an appropriate density to ensure exponential growth throughout the experimental period (3 × 10^3 cells per well) and then allowed to adhere for 24 h at 37 °C. The cells were infected with T. gondii (1.5 × 10^4 tachyzoites/well), followed by incubation for 24 h. All compounds were prepared in dimethyl sulfoxide (DMSO) at a stock concentration of 100 mM. Serial dilutions (1–1000 μM) of each compound were tested. Spiramycin was used as a positive control. After 24 h of incubation, 10 μL of MTT solution were added to each well and cells were incubated for a further 2 h. The optical density (OD) was read on a microplate reader at a wavelength of 492 nm. The IC50 in HeLa cells, IC50 in T. gondii and selectivity index were calculated using Microsoft Excel.

[1] = tested on: T. gondii RH strain tachyzoites; assay: In vitro T. gondii growth inhibition in HeLa host cells (MTT); format: cell-based, Toxoplasma gondii; details: for IC50: Toxoplasma gondii, median inhibitory concentration, tachyzoite inhibition, HeLa host cells, 24 h; for SI (selectivity index): IC50 in HeLa cells/IC50 in T. gondii
Description: as §1

Structure (SMILES) | melting point [°C] | IC50 (HeLa cells) [µM] | IC50 [1] [mM] | SI (selectivity index) [1]
C[C@H]1[C@H](C)CC[C@]2(C(=O)O)CC[C@]3(C)C(=CC[C@@H]4[C@@]5(C)C/C(=C\c6cn(-c7ccc(F)cc7)nn6)C(=O)C(C)(C)[C@@H]5CC[C@]43C)[C@H]12 [1d, (1S,2R,4aS,6aS,6bR,8aR,12aR,12bR,14bS,E)-11-((1–(4-fluorophenyl)-1H-1,2,3-triazol-4-yl)methylene)-1,2,6a,6b,9,9,12a-heptamethyl-10-oxo-1,3,4,5,6,6a,6b,7,8,8a,9,10,11,12,12a,12b,13,14b-octadecahydropicene-4a(2H)-carboxylic acid] | > 250 | > 1000 | > 1 | –
C[C@H]1[C@H](C)CC[C@]2(C(=O)O)CC[C@]3(C)C(=CC[C@@H]4[C@@]5(C)C/C(=C\c6cn(-c7ccccc7F)nn6)C(=O)C(C)(C)[C@@H]5CC[C@]43C)[C@H]12 [1b, (1S,2R,4aS,6aS,6bR,8aR,12aR,12bR,14bS,E)-11-((1–(2-fluorophenyl)-1H-1,2,3-triazol-4-yl)methylene)-1,2,6a,6b,9,9,12a-heptamethyl-10-oxo-1,3,4,5,6,6a,6b,7,8,8a,9,10,11,12,12a,12b,13,14b-octadecahydropicene-4a(2H)-carboxylic acid] | > 250 | 420 | 0.712 | 0.59
C[C@H]1[C@H](C)CC[C@]2(C(=O)O)CC[C@]3(C)C(=CC[C@@H]4[C@@]5(C)C/C(=C\c6cn(-c7cccc(F)c7)nn6)C(=O)C(C)(C)[C@@H]5CC[C@]43C)[C@H]12 [1c, (1S,2R,4aS,6aS,6bR,8aR,12aR,12bR,14bS,E)-11-((1–(3-fluorophenyl)-1H-1,2,3-triazol-4-yl)methylene)-1,2,6a,6b,9,9,12a-heptamethyl-10-oxo-1,3,4,5,6,6a,6b,7,8,8a,9,10,11,12,12a,12b,13,14b-octadecahydropicene-4a(2H)-carboxylic acid] | > 250 | > 1000 | > 1 | –
C[C@H]1[C@H](C)CC[C@]2(C(=O)O)CC[C@]3(C)C(=CC[C@@H]4[C@@]5(C)C/C(=C\c6cn(-c7ccc(Cl)c(Cl)c7)nn6)C(=O)C(C)(C)[C@@H]5CC[C@]43C)[C@H]12 [1f, (1S,2R,4aS,6aS,6bR,8aR,12aR,12bR,14bS,E)-11-((1–(3,4-dichlorophenyl)-1H-1,2,3-triazol-4-yl)methylene)-1,2,6a,6b,9,9,12a-heptamethyl-10-oxo-1,3,4,5,6,6a,6b,7,8,8a,9,10,11,12,12a,12b,13,14b-octadecahydropicene-4a(2H)-carboxylic acid] | > 250 | 408 | 0.462 | 0.88
COc1ccccc1-n1cc(/C=C2\C[C@]3(C)[C@H]4CC=C5[C@@H]6[C@@H](C)[C@H](C)CC[C@]6(C(=O)O)CC[C@@]5(C)[C@]4(C)CC[C@H]3C(C)(C)C2=O)nn1 [1i, (1S,2R,4aS,6aS,6bR,8aR,12aR,12bR,14bS,E)-11-((1–(2-methoxyphenyl)-1H-1,2,3-triazol-4-yl)methylene)-1,2,6a,6b,9,9,12a-heptamethyl-10-oxo-1,3,4,5,6,6a,6b,7,8,8a,9,10,11,12,12a,12b,13,14b-octadecahydropicene-4a(2H)-carboxylic acid] | > 250 | > 1000 | > 1 | –
C[C@H]1[C@H](C)CC[C@]2(C(=O)O)CC[C@]3(C)C(=CC[C@@H]4[C@@]5(C)C/C(=C\c6cn(-c7ccccc7)nn6)C(=O)C(C)(C)[C@@H]5CC[C@]43C)[C@H]12 [1a, (1S,2R,4aS,6aS,6bR,8aR,12aR,12bR,14bS,E)-1,2,6a,6b,9,9,12a-heptamethyl-10-oxo-11-((1-phenyl-1H-1,2,3-triazol-4-yl)methylene)-1,3,4,5,6,6a,6b,7,8,8a,9,10,11,12,12a,12b,13,14b-octadecahydropicene-4a(2H)-carboxylic acid] | > 250 | > 1000 | > 1 | –

Continued, in another order:

melting point [°C] | Structure (SMILES) | IC50 (HeLa cells) [µM] | IC50 [1] [mM] | SI (selectivity index) [1]
186 to 187 | Cc1ccc(-n2cc(CNC(=O)COC(=O)[C@]34CC[C@@H](C)[C@H](C)[C@H]3C3=CC[C@@H]5[C@@]6(C)CCC(O)C(C)(C)[C@@H]6CC[C@@]5(C)[C@]3(C)CC4)nn2)cc1 (stereo partly drawn) [2d, (1S,2R,4aS,6aS,6bR,8aR,12aR,12bR,14bS)-2-oxo-2-((1-p-tolyl-1H-1,2,3-triazol-4-yl)methylamino)ethyl-10-hydroxy-1,2,6a,6b,9,9,12a-heptamethyl-1,2,3,4,4a,5,6,6a,6b,7,8,8a,9,10,11,12,12a,12b,13,14b-icosahydropicene-4a-carboxylate] | > 1000 | > 1 | –
176 to 178 | C[C@H]1[C@H](C)CC[C@]2(C(=O)OCC(=O)NCc3cn(-c4ccc(Cl)cc4)nn3)CC[C@]3(C)C(=CC[C@@H]4[C@@]5(C)CCC(O)C(C)(C)[C@@H]5CC[C@]43C)[C@H]12 (stereo partly drawn) [2b, (1S,2R,4aS,6aS,6bR,8aR,12aR,12bR,14bS)-2-((1–(4-chlorophenyl)-1H-1,2,3-triazol-4-yl)methylamino)-2-oxoethyl-10-hydroxy-1,2,6a,6b,9,9,12a-heptamethyl-1,2,3,4,4a,5,6,6a,6b,7,8,8a,9,10,11,12,12a,12b,13,14b-icosahydropicene-4a-carboxylate] | 329 | > 1 | –
170 to 172 | C[C@H]1[C@H](C)CC[C@]2(C(=O)OCC(=O)NCc3cn(-c4ccccc4)nn3)CC[C@]3(C)C(=CC[C@@H]4[C@@]5(C)CCC(O)C(C)(C)[C@@H]5CC[C@]43C)[C@H]12 (stereo partly drawn) [2a, (1S,2R,4aS,6aS,6bR,8aR,12aR,12bR,14bS)-2-oxo-2-((1-phenyl-1H-1,2,3-triazol-4-yl)methylamino)ethyl-10-hydroxy-1,2,6a,6b,9,9,12a-heptamethyl-1,2,3,4,4a,5,6,6a,6b,7,8,8a,9,10,11,12,12a,12b,13,14b-icosahydropicene-4a-carboxylate] | 837 | > 1 | –
245 to 246 | C[C@H]1[C@H](C)CC[C@]2(C(=O)OCCn3cnnc3-c3ccc(Cl)cc3)CC[C@]3(C)C(=CC[C@@H]4[C@@]5(C)CCC(O)C(C)(C)[C@@H]5CC[C@]43C)[C@H]12 (stereo partly drawn) [3b, 2 –(3-(4-chlorophenyl)-4H-1,2,4-triazol-4-yl)ethyl(1S,2R,4aS,6aS,6bR,8aR,12aR,12bR,14bS)-10-hydroxy-1,2,6a,6b,9,9,12a-heptamethyl-1,3,4,5,6,6a,6b,7,8,8a,9,10,11,12,12a,12b,13,14b-octadecahydropicene-4a(2H)-carboxylate] | 2.4 | 0.0067 | 0.36
180 to 181 | COc1ccc(-n2cc(CNC(=O)COC(=O)[C@]34CC[C@@H](C)[C@H](C)[C@H]3C3=CC[C@@H]5[C@@]6(C)CCC(O)C(C)(C)[C@@H]6CC[C@@]5(C)[C@]3(C)CC4)nn2)cc1 (stereo partly drawn) [2c, (1S,2R,4aS,6aS,6bR,8aR,12aR,12bR,14bS)-2-((1–(4-methoxyphenyl)-1H-1,2,3-triazol-4-yl)methylamino)-2-oxoethyl-10-hydroxy-1,2,6a,6b,9,9,12a-heptamethyl-1,2,3,4,4a,5,6,6a,6b,7,8,8a,9,10,11,12,12a,12b,13,14b-icosahydropicene-4a-carboxylate] | > 1000 | > 1 | –
